Experimental data from publication PMC7456963, “HPLC-Based Activity Profiling for Antiprotozoal Compounds in Croton gratissimus and Cuscuta hyalina” (Frontiers in Pharmacology, 2020).
Read-outs that look alike come from different tables or passages of the source.

Experiments:
[1] = tested on: T. b. rhodesiense STIB 900 bloodstream forms; experiment: Activity against Trypanosoma brucei rhodesiense STIB900 (resazurin); assay type: cell-based; conditions: for Selectivity index (SI): IC50 in L6 cells divided by IC50 in T. b. rhodesiense: L6 cells vs T. b. rhodesiense STIB 900; for IC50: Trypanosoma brucei, 70 h, STIB 900 bloodstream forms, 70 h + resazurin, mean ± absolute deviation
Description: The stock was originally isolated from a patient and adapted to axenic culture conditions after several mouse passages and cloned. Minimum Essential Medium (50 µl) supplemented with 25 mM HEPES, 1 g/L additional glucose, 1% MEM non-essential amino acids (100×), 0.2 mM 2-mercaptoethanol, 1 mM Na-pyruvate ([Baltz et al., 1985]) and 15% heat inactivated horse serum was added to each well of a 96-well microtiter plate. Serial drug dilutions of eleven 3-fold dilution steps covering a range from 100 to 0.002 μg/ml were prepared. Then 4 × 10^3 bloodstream forms of T. b. rhodesiense STIB 900 in 50 µL were added to each well and the plate incubated for 70 h at 37°C and under a 5% CO2 atmosphere. 10 µL resazurin solution (resazurin, 12.5 mg in 100 ml double-distilled water) was then added to each well and incubation continued for a further 2–4 h ([Räz et al., 1997]). Plates were read with a Spectramax Gemini XS microplate fluorometer (Molecular Devices Cooperation, Sunnyvale, CA, USA) using an excitation wavelength of 536 nm and an emission wavelength of 588 nm. […] Melarsoprol (Arsobal Sanofi-Aventis, received from WHO) was used as control. Assays were performed in two independent replicates at least.

[2] = tested on: L-6 cells (rat skeletal myoblasts); experiment: In vitro cytotoxicity with L-6 cells (resazurin); assay type: cell-based; conditions: 70 h + 2 h resazurin, mean ± absolute deviation
Description: (§1) Assays were performed in 96-well microtiter plates, each well containing 100 µl of RPMI 1640 medium supplemented with 1% L-glutamine (200 mM) and 10% fetal bovine serum, and 4000 L-6 cells (a primary cell line derived from rat skeletal myoblasts) ([Ahmed et al., 1994]). Serial drug dilutions of 11 three-fold dilution steps covering a range from 100 to 0.002 μg/ml were prepared 24 h post seeding L-6 cells. The plates were incubated for 70 h and inspected under an inverted microscope to assure growth of the controls and sterile conditions. 10 µl of resazurin was then added to each well and the plates incubated for another 2 h. Then the plates were read with a Spectramax Gemini XS microplate fluorometer (Molecular Devices Cooperation, Sunnyvale, CA, USA) using an excitation wavelength of 536 nm and an emission wavelength of 588 nm. The IC50 values were calculated by linear regression and four-parameter logistic regression from the sigmoidal dose inhibition curves using SoftmaxPro software (Molecular Devices Cooperation, Sunnyvale, CA, USA). Podophyllotoxin (Sigma P4405) was used as positive control. All assays were performed in two independent replicates at least. Activities of all compounds were expressed in µM using the formula: […]

[3] = tested on: L. donovani strain MHOM/ET/67/L82 axenic amastigotes; experiment: Activity against Leishmania donovani axenic amastigotes (resazurin); assay type: cell-based; conditions: for Selectivity index (SI): IC50 in L6 cells divided by IC50 in L. donovani axenic amastigotes: L6 cells vs axenic L. donovani; for IC50: Leishmania donovani, mean ± absolute deviation, at least two replicates
Description: Amastigotes of L. donovani strain MHOM/ET/67/L82 were grown under an atmosphere of 5% CO2 in air in axenic culture at 37°C in SM medium ([Cunningham, 1977]) at pH 5.4 supplemented with 10% heat-inactivated fetal bovine serum. 50 µL of culture medium was added in the wells of a 96-well plate and serial drug dilutions of eleven three-fold dilution steps covering a final range from 100 to 0.002 μg/ml were prepared. 50 µL culture medium with 2 × 10^5 amastigotes from axenic culture were added to each well. After 70 h of incubation the plates were inspected under an inverted microscope to assure growth of the controls and sterile conditions. 10 μl of resazurin (12.5 mg resazurin dissolved in 100 ml distilled water) were added to each well and the plates incubated for another 2 h. Then the plates were read with a Spectramax Gemini XS microplate fluorometer (Molecular Devices Cooperation, Sunnyvale, CA, USA) using an excitation wavelength of 536 nm and an emission wavelength of 588 nm. Data were analyzed using the software Softmax Pro (Molecular Devices Cooperation, Sunnyvale, CA, USA). Decrease of fluorescence (= inhibition) was expressed as percentage of the fluorescence of untreated control cultures and plotted against the drug concentrations. From the sigmoidal inhibition curves the IC50 values were calculated. Miltefosine was used as positive control drug. Assays were performed in two independent replicates at least.

[4] = tested on: P. falciparum NF54 erythrocytic stages; experiment: Activity against Plasmodium falciparum (3H-hypoxanthine incorporation); assay type: cell-based; conditions: for Selectivity index (SI): IC50 in L6 cells divided by IC50 in P. falciparum: L6 cells vs P. falciparum NF54; for IC50: mean ± absolute deviation
Description: In vitro activity against the erythrocytic stages of P. falciparum was determined using a ^3H-hypoxanthine incorporation assay ([Desjardins et al., 1979]), using the drug sensitive NF54 strain ([Ponnudurai et al., 1981]). Compounds were dissolved in DMSO at 10 mg/ml and further diluted in medium before addition to parasite cultures incubated in RPMI 1640 medium without hypoxanthine, supplemented with HEPES (5.94 g/L), NaHCO3 (2.1 g/L), neomycin (100 U/ml), Albumax^R (5 g/L), and washed human red cells A^+ at 2.5% haematocrit (0.3% parasitemia). Serial drug dilutions of 11 three-fold dilution steps covering a range from 100 to 0.002 μg/ml were prepared. The 96-well plates were incubated in a humidified atmosphere at 37°C; 4% CO2, 3% O2, 93% N2. After 48 h, 50 μl of ^3H-hypoxanthine (=0.5 μCi) was added to each well of the plate. The plates were incubated for a further 24 h under the same conditions. The plates were then harvested with a Betaplate™ cell harvester (Wallac, Zurich, Switzerland), the red blood cells transferred onto a glass fibre filter, and lysed with distilled water. The dried filters were inserted into a plastic foil with 10 ml of scintillation fluid and counted in a Betaplate™ liquid scintillation counter (Wallac, Zurich, Switzerland). IC50 values were calculated from sigmoidal inhibition curves by linear regression using Microsoft Excel. Chloroquine (Sigma C6628) was used as control. Assays were performed in two independent replicates at least.

[5] = tested on: L. donovani amastigotes in mouse peritoneal macrophages; experiment: Activity against Leishmania donovani intramacrophage amastigotes (high-content imaging); assay type: cell-based; conditions: Leishmania donovani, Peritoneal macrophage, 96 h, read-out: IC50 L. donovani Intramacrophage
Description: (§2) Macrophages were isolated from the mouse (CDI) peritoneal cavity ([Zhang et al., 2008]) using 2% starch solution as eliciting agent injected 2 day prior to cell harvest. Animal work was carried out according to the rules and regulations for the protection of animal rights (“Tierschutzverordnung”) of the Swiss “Bundesamt für Veterinärwesen” (License number 2374). Mouse peritoneal macrophages (4 × 10^4 in 100 µL RPMI 1640 medium with 10% heat-inactivated FBS) were seeded into wells of a 96-well plate. After 24 h, 2 × 10^5 amastigote L. donovani in 100 µL were added. The amastigotes were taken from an axenic amastigote culture grown at pH 5.4. The medium containing free amastigote forms was removed after 24 h and replaced with fresh medium. The washing step was repeated and afterward the serial drug dilution was prepared with at least 6 dilution steps. Compounds were dissolved in DMSO at 10 mg/ml and further diluted in medium. After 96 h of incubation at 37°C under a 5% CO2 atmosphere, the medium was removed, and cells were fixed by adding 50 µl 4% formaldehyde solution followed by a staining with a 5 µM DRAQ5 solution. Plates were imaged in ImageXpress XLS (MD) microscope using a 20× air objective (635 nm excitation: 690/50 emission). 9 images were collected per well. Automated image analysis was performed with a script developed on Meta Xpress Software (MD). Three outputs were provided for each well: i) number of host cell nuclei; ii) numbers of infected and non-infected host cells; iii) number of parasite nuclei per infected host cell. The IC50 values were calculated based on the infection rate and the numbers of intracellular amastigotes. The cytotoxicity to macrophages was determined in parallel, and IC50 values were calculated based on the numbers of surviving, uninfected macrophages. Miltefosine was used as control. Assays were performed in two independent replicates at least.

[6] = Cytotoxicity to macrophages determined in parallel to the intramacrophage assay; assay type: cell-based; conditions: CDI, surviving, uninfected mouse peritoneal macrophages
Description: as §2

[7] = In vitro cytotoxicity with L-6 cells (resazurin); assay type: cell-based, rat; conditions: rat, L6 cells, 70 h + 2 h resazurin, mean ± absolute deviation
Description: as §1

[8] = pH 5.4, axenic amastigotes, MHOM/ET/67/L82, pH 5.4, 70 h + 2 h resazurin, read-out: IC50 L. donovani Axenic
[9] = Plasmodium falciparum, NF54, 72 h, NF54 drug sensitive strain, erythrocytic stages, 72 h, read-out: IC50 P. falciparum
[10] = amastigotes in mouse peritoneal macrophages
[11] = Plasmodium falciparum, NF54, 72 h, read-out: IC50 P. falciparum, NF54 drug sensitive strain, erythrocytic stages, 72 h

| IC50 ([4]; NF54 drug sensitive strain, erythrocytic stages, 72 h, read-out: IC50 P. falciparum) | IC50 [4, 9] | SMILES | Selectivity index (SI): IC50 in L6 cells divided by IC50 in T. b. rhodesiense [1] | IC50 [1] | IC50 L6 cells (cytotoxicity) [2] | Selectivity index (SI): IC50 in L6 cells divided by IC50 in L. donovani axenic amastigotes [3] | IC50 [3, 8] | Selectivity index (SI): IC50 in L6 cells divided by IC50 in P. falciparum [4] | IC50 [5, 10] | IC50 at 96 h [6] | IC50 at 70 h [7] | IC50 at 70 h ([7]; L-6 cells (rat skeletal myoblasts)) | IC50 ([3]; pH 5.4, read-out: IC50 L. donovani Axenic, axenic amastigotes, MHOM/ET/67/L82, pH 5.4, 70 h + 2 h resazurin) | IC50 [4, 11] | IC50 [5] |
| --- | --- | --- | --- | --- | --- | --- | --- | --- | --- | --- | --- | --- | --- | --- | --- |
| 18.2 ± 6.7 µM | < 20 µM | COc1ccc(-c2oc3cc(O)cc(O)c3c(=O)c2OC)cc1O [Compound 5, Quercetin-3,4′-dimethylether] | 2.9 | 6.6 ± 3.2 µM | significant cytotoxicity | 1.3 | 15 to 22 µM | 1.1 | > 33.3 µM | 42.7 ± 12.1 µM |  |  |  |  |  |
|  | 73.2 ± 5.9 µM | O=C1C[C@@H](c2ccc(O)cc2)Oc2cc(O)cc(O)c21 [Compound 4, Naringenin] | 1.3 |  |  | 5.6 | 41.8 ± 9.3 µM | 3.2 | > 121 µM | 333 ± 18.2 µM |  | 233 ± 36.9 µM |  |  |  |
|  |  | COc1ccc(C[C@@H]2c3cc(OC)c(OC)cc3CCN2C)cc1O [Compound 8, Laudanine] |  | > 80 µM |  |  |  |  |  | > 200 µM | 292 µM |  | > 150 µM | 78.6 ± 0.4 µM | > 292 µM |
|  |  | COc1ccc(CC2c3cc(OC)c(OC)cc3CCN2C)cc1OC (stereo not drawn) [Compound 9, Laudanosine] |  | > 80 µM |  |  | > 150 µM |  | > 186 µM | > 245 µM | 280 µM |  |  | 76.1 ± 21.6 µM |  |

| SMILES | IC50 ([4]; NF54 drug sensitive strain, erythrocytic stages, 72 h, read-out: IC50 P. falciparum) | IC50 [4, 9] | Selectivity index (SI): IC50 in L6 cells divided by IC50 in T. b. rhodesiense [1] | IC50 [1] | IC50 L6 cells (cytotoxicity) [2] | Selectivity index (SI): IC50 in L6 cells divided by IC50 in L. donovani axenic amastigotes [3] | IC50 [3, 8] | Selectivity index (SI): IC50 in L6 cells divided by IC50 in P. falciparum [4] | IC50 [5, 10] | IC50 at 96 h [6] | IC50 at 70 h [7] | IC50 at 70 h ([7]; L-6 cells (rat skeletal myoblasts)) | IC50 ([3]; pH 5.4, read-out: IC50 L. donovani Axenic, axenic amastigotes, MHOM/ET/67/L82, pH 5.4, 70 h + 2 h resazurin) | IC50 [4, 11] | IC50 [5] |
| --- | --- | --- | --- | --- | --- | --- | --- | --- | --- | --- | --- | --- | --- | --- | --- |
| COc1cc(O)c2c(=O)c(OC)c(-c3ccc(OC)c(OC)c3)oc2c1 [Compound 3, Retusin] |  | 23.4 ± 3.8 µM | 2.6 | > 80 µM |  | 6.3 | 34.1 ± 4.7 µM | 9.2 | > 186 µM | 173 µM | 215 ± 4.7 µM |  |  |  |  |
